pKd: −log10 of the molar value. “Also recorded” adds a separate entry of the source.
Biological target: T1, HDAC1 (Homo sapiens, UniProt Q13547)
T1 construct: Flag
Assay: Fluorescence polarization Kd determination of FITC-labeled compounds by HDAC1 titration
Format: binding
Details: for time for binding to come to equilibrium: FP read over time after adding the FITC-labeled compound to HDAC1; for binding mechanism (exponential fit of Kd app versus time): replot of Kd app values vs. time, 1-phase or 2-phase exponential fit
Protocol: Titrations of HDAC1 were set up in 96-well black, flat-bottom plates. The concentrations of HDAC1 varied from 5 to 200 nM (with COMPOUND 1 and COMPOUND 2) or 20 to 450 nM (with COMPOUND 3). At time zero, the FITC-labeled compound was added and the plate inserted into the Analyst HT for FP detection. The samples were read every 5 seconds through ˜10 minutes (COMPOUND 1) or 2 hours (COMPOUND 2 and COMPOUND 3). The data at each time point was converted from mP to […] and plotted in Prism using an equation for ligand binding taking ligand-depletion into consideration (Equations 1-3) (An example of which is given in FIG. 1A).
where Lt is total fluorescently-labeled compound concentration, Rt is total HDAC concentration, Kd is the dissociation constant for the ligand to HDAC, Ab is the anisotropy when 100% of the ligand is bound, and Af is the anisotropy when 100% of the ligand is free. The values determined by the data as plotted in Figure A are Kd^app, Ab, and Af.
After determining the Kd^app for each time point, the Kd^app was replotted versus time (FIG. 1B) to determine true steady-state Kd. […] The plateau value of this exponential decay defines the steady-state Kd value.

T1 sequence (Q13547 whole entry): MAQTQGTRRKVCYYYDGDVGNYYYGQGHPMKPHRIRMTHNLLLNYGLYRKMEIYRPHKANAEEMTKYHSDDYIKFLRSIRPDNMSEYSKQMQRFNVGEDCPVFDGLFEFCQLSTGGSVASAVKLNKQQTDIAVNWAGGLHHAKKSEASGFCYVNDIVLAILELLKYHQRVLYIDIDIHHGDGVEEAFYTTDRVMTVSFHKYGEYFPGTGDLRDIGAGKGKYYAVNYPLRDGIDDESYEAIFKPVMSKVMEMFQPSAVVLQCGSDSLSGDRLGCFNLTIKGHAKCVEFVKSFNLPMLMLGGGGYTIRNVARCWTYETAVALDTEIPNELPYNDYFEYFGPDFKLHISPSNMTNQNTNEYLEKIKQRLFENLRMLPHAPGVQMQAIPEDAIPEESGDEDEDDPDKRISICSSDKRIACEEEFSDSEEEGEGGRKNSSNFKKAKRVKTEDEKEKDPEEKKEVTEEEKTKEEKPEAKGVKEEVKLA

Row | SMILES | time for binding to come to equilibrium | binding mechanism (exponential fit of Kd app versus time) | pKd (plateau of Kd app replotted versus time, HDAC1 5 to 200 nM, FP detection, read-out: true steady-state Kd) | binding mechanism (exponential fit of Kd app versus time) (listed as FITC-SAHA)
1 | Nc1ccc(-c2ccccc2)cc1NC(=O)c1ccc(CNC(=O)OCc2ccc(CNC(=S)Nc3ccc(-c4c5ccc(=O)cc-5oc5cc(O)ccc45)c(C(=O)O)c3)cc2)cc1 [COMPOUND 2, 5-{[({4-[({[(4-{[(4-aminobiphenyl-3-yl)amino]carbonyl}benzyl)amino]carbonyl}oxy)methyl]benzyl}amino)carbonothioyl]amino}-2-(6-hydroxy-3-oxo-3H-xanthen-9-yl)benzoic acid] | 210 min | requires a 2-phase exponential curve; also recorded: bound slowly with an induced-fit mechanism |  | 
2 | O=C(CCCCCCC(=O)Nc1ccc(CNC(=S)Nc2ccc(-c3c4ccc(=O)cc-4oc4cc(O)ccc34)c(C(=O)O)c2)cc1)NO [COMPOUND 1, 5-({[(4-{[8-(hydroxyamino)-8-oxooctanoyl]amino}benzyl)amino]carbonothioyl}amino)-2-(6-hydroxy-3-oxo-3H-xanthen-9-yl)benzoic acid] | faster than could be measured by the instrument used | classical 1-step binding mechanism | 7.80 | fits 1-phase exponential curve quite well
